# Measured values reported in PubChem BioAssay (NCI).
#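 In this assay, cells in 96-well plates receive the compound at five concentrations for 48 hours. Endpoints are linearly interpolated between the surrounding concentrations. GI50: concentration for 50% inhibition of growth. TGI denotes the concentration required for complete inhibition of growth.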
# Assays:
# Assay in all cases: growth of human tumour cells (NCI), 48 h
# 786-0 renal = tested on: 786-0 renal
# A549 NSCLC = tested on: A549 NSCLC
# ACHN renal = tested on: ACHN renal
# BT-549 breast = tested on: BT-549 breast
# CAKI-1 renal = tested on: CAKI-1 renal
# CCRF-CEM leukemia = tested on: CCRF-CEM leukemia
# COLO 205 colon = tested on: COLO 205 colon
# DU-145 prostate = tested on: DU-145 prostate
# EKVX NSCLC = tested on: EKVX NSCLC
# HCC-2998 colon = tested on: HCC-2998 colon
# HCT-116 colon = tested on: HCT-116 colon
# HCT-15 colon = tested on: HCT-15 colon
# HL-60(TB) leukemia = tested on: HL-60(TB) leukemia
# HOP-62 NSCLC = tested on: HOP-62 NSCLC
# HS 578T breast = tested on: HS 578T breast
# HT29 colon = tested on: HT29 colon
# IGROV1 ovarian = tested on: IGROV1 ovarian
# K-562 leukemia = tested on: K-562 leukemia
# KM12 colon = tested on: KM12 colon
# LOX IMVI melanoma = tested on: LOX IMVI melanoma
# M14 melanoma = tested on: M14 melanoma
# MALME-3M melanoma = tested on: MALME-3M melanoma
# MCF7 breast = tested on: MCF7 breast
# MDA-MB-231 breast = tested on: MDA-MB-231 breast
# MDA-MB-435 = tested on: MDA-MB-435
# MOLT-4 leukemia = tested on: MOLT-4 leukemia
# NCI-H226 lung = tested on: NCI-H226 lung
# NCI-H23 lung = tested on: NCI-H23 lung
# NCI-H460 lung = tested on: NCI-H460 lung
# NCI-H522 lung = tested on: NCI-H522 lung
# NCI/ADR-RES ovarian = tested on: NCI/ADR-RES ovarian
# OVCAR-3 ovarian = tested on: OVCAR-3 ovarian
# OVCAR-4 ovarian = tested on: OVCAR-4 ovarian
# OVCAR-5 ovarian = tested on: OVCAR-5 ovarian
# OVCAR-8 ovarian = tested on: OVCAR-8 ovarian
# PC-3 prostate = tested on: PC-3 prostate
# RPMI-8226 leukemia = tested on: RPMI-8226 leukemia
# RXF 393 renal = tested on: RXF 393 renal
# SF-268 CNS = tested on: SF-268 CNS
# SF-295 CNS = tested on: SF-295 CNS
# SF-539 CNS = tested on: SF-539 CNS
# SK-MEL-2 melanoma = tested on: SK-MEL-2 melanoma
# SK-MEL-28 melanoma = tested on: SK-MEL-28 melanoma
# SK-MEL-5 melanoma = tested on: SK-MEL-5 melanoma
# SK-OV-3 ovarian = tested on: SK-OV-3 ovarian
# SN12C renal = tested on: SN12C renal
# SNB-19 CNS = tested on: SNB-19 CNS
# SNB-75 CNS = tested on: SNB-75 CNS
# SR leukemia = tested on: SR leukemia
# SW-620 colon = tested on: SW-620 colon
# T-47D breast = tested on: T-47D breast
# TK-10 renal = tested on: TK-10 renal
# U251 CNS = tested on: U251 CNS
# UACC-257 melanoma = tested on: UACC-257 melanoma
# UACC-62 melanoma = tested on: UACC-62 melanoma
# UO-31 renal = tested on: UO-31 renal
smiles,measurement,setting,value
CC1=C[C@H]2C[C@H](C)[C@H]3CC[C@H](C)[C@]4(C1)C(=O)C(O)=C(C)C(=O)[C@@]324,GI50,786-0 renal,30.1 µM
same,TGI,786-0 renal,> 100 µM
same,GI50,A549 NSCLC,28.5 µM
same,TGI,A549 NSCLC,> 100 µM
same,GI50,ACHN renal,34.2 µM
same,TGI,ACHN renal,> 100 µM
same,GI50,BT-549 breast,46 µM
same,TGI,BT-549 breast,> 100 µM
same,GI50,CAKI-1 renal,24.9 µM
same,TGI,CAKI-1 renal,66.1 µM
same,GI50,CCRF-CEM leukemia,11.7 µM
same,TGI,CCRF-CEM leukemia,31.5 µM
same,GI50,COLO 205 colon,19 µM
same,TGI,COLO 205 colon,48.9 µM
same,GI50,DU-145 prostate,43.3 µM
same,TGI,DU-145 prostate,> 100 µM
same,GI50,EKVX NSCLC,42.9 µM
same,TGI,EKVX NSCLC,> 100 µM
same,GI50,HCC-2998 colon,19.6 µM
same,TGI,HCC-2998 colon,47.2 µM
same,GI50,HCT-116 colon,19.5 µM
same,TGI,HCT-116 colon,41.8 µM
same,GI50,HCT-15 colon,32.7 µM
same,TGI,HCT-15 colon,> 100 µM
same,GI50,HL-60(TB) leukemia,15.7 µM
same,TGI,HL-60(TB) leukemia,33.1 µM
same,GI50,HOP-62 NSCLC,28.7 µM
same,TGI,HOP-62 NSCLC,83.6 µM
same,GI50,HS 578T breast,24.7 µM
same,TGI,HS 578T breast,67.5 µM
same,GI50,HT29 colon,27.8 µM
same,TGI,HT29 colon,> 100 µM
same,GI50,IGROV1 ovarian,29.6 µM
same,TGI,IGROV1 ovarian,> 100 µM
same,GI50,K-562 leukemia,20 µM
same,TGI,K-562 leukemia,39.5 µM
same,GI50,KM12 colon,29.4 µM
same,TGI,KM12 colon,> 100 µM
same,GI50,LOX IMVI melanoma,22.1 µM
same,TGI,LOX IMVI melanoma,51.1 µM
same,GI50,M14 melanoma,29.7 µM
same,TGI,M14 melanoma,> 100 µM
same,GI50,MALME-3M melanoma,23.3 µM
same,TGI,MALME-3M melanoma,80.7 µM
same,GI50,MCF7 breast,> 100 µM
same,TGI,MCF7 breast,> 100 µM
same,GI50,MDA-MB-231 breast,20.8 µM
same,TGI,MDA-MB-231 breast,65.7 µM
same,GI50,MDA-MB-435,41.1 µM
same,TGI,MDA-MB-435,> 100 µM
same,GI50,MOLT-4 leukemia,16.3 µM
same,TGI,MOLT-4 leukemia,37.4 µM
same,GI50,NCI-H226 lung,33 µM
same,TGI,NCI-H226 lung,> 100 µM
same,GI50,NCI-H23 lung,11 µM
same,TGI,NCI-H23 lung,29.7 µM
same,GI50,NCI-H460 lung,42.9 µM
same,TGI,NCI-H460 lung,> 100 µM
same,GI50,NCI-H522 lung,19.8 µM
same,TGI,NCI-H522 lung,83.4 µM
same,GI50,NCI/ADR-RES ovarian,17.2 µM
same,TGI,NCI/ADR-RES ovarian,48.4 µM
same,GI50,OVCAR-3 ovarian,20 µM
same,TGI,OVCAR-3 ovarian,64.6 µM
same,GI50,OVCAR-4 ovarian,29.8 µM
same,TGI,OVCAR-4 ovarian,> 100 µM
same,GI50,OVCAR-5 ovarian,20.4 µM
same,TGI,OVCAR-5 ovarian,55.4 µM
same,GI50,OVCAR-8 ovarian,40.4 µM
same,TGI,OVCAR-8 ovarian,> 100 µM
same,GI50,PC-3 prostate,18.4 µM
same,TGI,PC-3 prostate,56 µM
same,GI50,RPMI-8226 leukemia,13.1 µM
same,TGI,RPMI-8226 leukemia,32.4 µM
same,GI50,RXF 393 renal,60.9 µM
same,TGI,RXF 393 renal,> 100 µM
same,GI50,SF-268 CNS,> 100 µM
same,TGI,SF-268 CNS,> 100 µM
same,GI50,SF-295 CNS,> 100 µM
same,TGI,SF-295 CNS,> 100 µM
same,GI50,SF-539 CNS,52.6 µM
same,TGI,SF-539 CNS,> 100 µM
same,GI50,SK-MEL-2 melanoma,32.3 µM
same,TGI,SK-MEL-2 melanoma,> 100 µM
same,GI50,SK-MEL-28 melanoma,26 µM
same,TGI,SK-MEL-28 melanoma,> 100 µM
same,GI50,SK-MEL-5 melanoma,13.5 µM
same,TGI,SK-MEL-5 melanoma,30.8 µM
same,GI50,SK-OV-3 ovarian,45.1 µM
same,TGI,SK-OV-3 ovarian,> 100 µM
same,GI50,SN12C renal,28.7 µM
same,TGI,SN12C renal,> 100 µM
same,GI50,SNB-19 CNS,30.2 µM
same,TGI,SNB-19 CNS,> 100 µM
same,GI50,SNB-75 CNS,46.7 µM
same,TGI,SNB-75 CNS,> 100 µM
same,GI50,SR leukemia,27.4 µM
same,TGI,SR leukemia,82.6 µM
same,GI50,SW-620 colon,31.5 µM
same,TGI,SW-620 colon,> 100 µM
same,GI50,T-47D breast,19.1 µM
same,TGI,T-47D breast,> 100 µM
same,GI50,TK-10 renal,47.4 µM
same,TGI,TK-10 renal,> 100 µM
same,GI50,U251 CNS,32.1 µM
same,TGI,U251 CNS,> 100 µM
same,GI50,UACC-257 melanoma,59.2 µM
same,TGI,UACC-257 melanoma,> 100 µM
same,GI50,UACC-62 melanoma,22 µM
same,TGI,UACC-62 melanoma,80.2 µM
same,GI50,UO-31 renal,29.8 µM
same,TGI,UO-31 renal,> 100 µM
